Experimental data from patent publication US20170224749A1, “VAGINAL COMPOSITION FOR THE TREATMENT OF UROGENITAL INFECTIONS” (HPRD - HEALTH PRODUCTS RESEARCH AND DEVELOPMENT LDA, priority 2014, published 2017).

Experiments:
G. vaginalis G19 = assay: anti-Gardnerella activity of film dispersions, micromethod (CSLI M45); type: cell-based, Gardnerella vaginalis; design: key: −: absence of bacterial growth; +: presence; settings: lactic acid used for the preparation of formulations (control)
Procedure: (§1) In an embodiment, the antibacterial activity of chitosan films was tested against two Gardnerella vaginalis clinical strains, this being the pathogen most frequently associated with vaginal bacteriosis. […] The antibacterial activity was tested according to the CSLI M45 standard. Controls were performed with VFS and the lactic acid used for the preparation of formulations, as well as growth controls of strains and sterility of the culture medium used. All tests were performed in duplicate. Plates were observed concerning the presence or absence of bacterial growth after 48 h of growth at 37° C. Table 3 represents the results obtained indicating the marked activity of the film since no bacterial growth occurs for 1:4 dilution (second sequential dilution) of the film dispersion in 3 mL of water and VFS. […] The test was performed after incubation of the wells containing the tissue with maintenance medium (commercial), at 37° C. with 5% CO2 atmosphere, in accordance with the recommendations of the supplier. After the incubation period, 17 mg of film were placed over the tissue in each well and added of […] of PBS to allow for dispersion. After the 12 h incubation period, cellular viability was assessed by the MTT test (n=2 wells) and histological analysis was performed. […] Since this formulations was developed to treat an infection, being toxic to bacteria, it wouldn't be expected to totally innocuous for the human tissue. Biocompatibility of chitosan with human tissue has been described and the lactic acid used in this formulation was selected due to the natural occurrence in the vagina. On the other hand, the fact that this formulation is intended for short term treatments, in an altered vaginal environment due to the presence of pathogens, can influence the final effect of the formulation in the tissue of the host.

G. vaginalis G71 = assay: as above; type: cell-based, Gardnerella vaginalis; design: key: −: absence of bacterial growth; +: presence; settings: lactic acid used for the preparation of formulations (control)
Procedure: as §1

Measured: bacterial growth

CC(O)C(=O)O (stereo not shown) [Lactic acid, lactic acid]
−: G. vaginalis G19; dilution 1:2 | G. vaginalis G19; dilution 1:4 | G. vaginalis G71; dilution 1:2 | G. vaginalis G71; dilution 1:4
